Assay results taken from patent US9585871B2, “Method for treating and curing leishmaniosis using fexinidazole” (Merial Limited, priority 2013, dated 2017).

What was measured:
[1] = Toxicology summary: maximum dose after oral administration, rats; assay type: in vivo
Source text: Toxicology summary. In mice and rats, the maximum fexinidazole (FEX) dose after oral administration is 10 g/kg of body weight. […] Finally, as regards PK, labeled FEX and its metabolites were excreted within 3 days in the feces (52-58%) and urine (36-40%).

[2] = system: Leishmania donovani amastigotes grown in macrophages; settings: Wyllie S et al., 2012; cited from earlier work
L. donovani = settings: mice; Wyllie, Sci Transl. Med 4, 119, 2012; cited from earlier work
[3] = Multiple dosing study in dogs, 28 consecutive days oral: tolerability; assay type: in vivo, dog; settings: for Effects observed: dog, in vivo
Source text: In a particular embodiment, the sufficient fexinidazole plasma levels are achieved by administering oral veterinary compositions comprising an effective amount of fexinidazole over a period of time of at least about twenty days. The fexinidazole may be administered according to any effective regimen, including, but not solely, once weekly, twice weekly, once daily, or twice daily. All that is required is that dosing regimen maintains a sufficient fexinidazole plasma level, over a sufficient period of time, to substantially or completely eliminate or cure the Leishmania infections.
Moreover, inventors expect that a wide variety of dosing regimens are now available to the skilled person to achieve the necessary and sufficient fexinidazole plasma levels. For example, and as further outlined in the Examples below, any dosing regimen that produces substantially similar fexinidazole plasma levels, as compared to those levels produced by giving the dogs about 60 mg/kg/day for about twenty-eight days, is expected to substantially or completely eliminate the Leishmania parasites. Table 1 presents the systemic fexinidazole exposure following dosing of dogs with 50, 200, and 800 mg/kg/day.

In the case of `CSc1ccc(OCc2ncc([N+](=O)[O-])n2C)cc1` [Fexinidazole, fexinidazole], the “maximum dose after oral administration” value [1] is listed as 10 g/kg of body weight, the “activity against Leishmania donovani amastigotes grown in macrophages” value [2] is listed as “inactive” and the “suppression of infection due to L. donovani” value (L. donovani) is listed as “able to suppress infection”. For the same compound, the Effects observed ([3]; 200 mg/kg/day) was “no effects were observed”, the Effects observed ([3]; 800 mg/kg/day) was “only minor effects were observed” and the Tolerability ([3]; dogs, oral 50, 200 and 800 mg/kg/day for 28 consecutive days) was “well tolerated”.
